Data reported in patent US4863748A, “Dietary products and uses comprising methylsulfonylmethane” (priority 1986, dated 1989).

How the values were obtained:
[1] = test system: spontaneous mouse lymphomas; experiment: Spontaneous mouse lymphomas, survival (Example 37); type: in vivo, laboratory mice; conditions: 3% by wt. in water; all 12 controls dead by month 4
Procedure: (§1) Laboratory mice genetically predisposed to lymphoma development were selected for this test. Humoral immunity participation was measured as was the effect of methylsulfonylmethane on an animal's life span. One set of 12 mice were maintained as controls. The treated (T) group received identical treatment except for their water given ad lib, which contained 3% by wt. of methylsulfonylmethane in solution.
(§2) By month 4 of this test, all controls were dead, due to lymphoma development. […] These normal balb/c strain mice of group T were tested for t-lymphocyte dependent (t-d) and t-lymphocyte independent (t-i) immune responses. […] Based on these preliminary results, at high enough daily rates of ingestion, methylsulfonylmethane stimulates humoral immunity thereby providing protection to otherwise lethal spontaneous mouse lymphomas.

[2] = test system: gum inflammation and oral mucosa; experiment: Oral hygiene (Example 11); type: in vivo, human
[3] = test system: pain and inflammation of musculoskeletal system disorders; experiment: Pain associated with systemic inflammatory disorders (Example 15); type: in vivo, human
From the text: subject two, presented chronic arthritis with painful involvement of the lower trunk. Over the years they had evaluated most new antiarthritic, analgesic drugs with disappointing results.

[4] = test system: scarification of the right cheek pouch; experiment: Wound healing of the cheek pouch in hamsters (Example 17); type: in vivo; conditions: 0.1 gm/kg methylsulfonylmethane alone or 100 mg ascorbic acid alone in feed; controls day 4 and 5
Procedure: Four sets of 5 hamsters were subject to scarification of the right cheek pouch, using standard methodology. One week prior to pouch injury, one set was started on a daily regimen of 0.1 gm/kg of methylsulfonylmethane in the diet of standard hamster feed, a second group was given 0.1 gm/kg of methylsulfonylmethane plus 100 mg of ascorbic acid in the same feed, a third group was given only 100 mg of ascorbic acid in the same feed, and the last group, fed only the feed, was held as control. Daily post-scarification examination was made to determine the rate of injury repair.

sun and wind burn = experiment: Sun and wind burn (Example 23); type: in vivo, human; conditions: 0.5-2 gm/day, about 4 hours exposure; companions severely burned
lymphomas = conditions: oral, cited from earlier work
arthritis = experiment: Canine arthritis and other sources of pain (Example 30); type: in vivo, dog
From the text: In each case the methylsulfonylmethane was admixed with the animal's food just prior to feeding.
This animal, although owned by a veterinarian, had not responded to a variety of therapeutic regimens over the previous 12 months. Methylsulfonylmethane was given to this dog in its food at a level of 1.5 grams b.i.d. X 1 month.
It was mobile but walked with obvious difficulty and discomfort. The animals was refractory to both cortisone and phenylbutazone.
The animal had not responded to either cortisone nor phenylbutazone and its condition was deteriorating rapidly. Methylsulfonylmethane was included in its diet at 1 gm/day b.i.d. After one week, the dog appeared to be pain-free.

mood and depression = experiment: Mental normalcy (Example 16); type: in vivo, human
Procedure: Students reported that while taking methylsulfonylmethane, their ability to concentrate is enhanced. Methylsulfonylmethane therefore is useful in conjunction with CNS therapeutants. The most useful application for methylsulfonylmethane seen to date in the field of mental normalizing is as an aid to the terminally ill, to relieve anxiety and depression.
To a chronically or terminally ill patient suffering from mental depression, administer […] body weight of methylsulfonylmethane daily, in tablet or capsule form, dissolved in water or a cold beverage, or admixed in a cold food. Within 12 hours to 2 days, a significant improvement in the mental attitude of the patient will be noted.

[5] = test system: urinary taurine secretion; conditions: man; cited from earlier work
[6] = cited from earlier work
[7] = test system: t-lymphocyte dependent and t-lymphocyte independent immune responses; experiment: Humoral immune responses in mice (Example 37); type: in vivo, balb/c strain mice; conditions: 3% by wt. in water
Procedure: as §1, §2

skin = experiment: Effect on skin tissue; conditions: in vivo
From the text: Studies to date indicate that it is desirable that animals ingest about 0.5-1.0 milligram/kg body weight/day of methylsulfonylmethane to maintain optimum good health. However, any lower level will serve some benefit. Higher levels are either stored in the body as a sulfur reserve, provide a sufficient concentration to optimize synthesis of the multitude of required sulfur containing biomolecules, or simply are excreted as by the renal pathway or through the skin.

Giardia lamblia = experiment: Treatment of Giardia infection in a subject (Example 28(b)); type: in vivo, human; conditions: 500 mg orally three times/24 hours × 14 days
Procedure: One subject with confirmed Giardia, apparently contacted from contaminated water in a primitive area, was given 500 mg of methylsulfonylmethane orally three times/24 hours×14 days. By the eighth day they were asymptomatic.

Trichomonas vaginalis = experiment: Treatment of Trichomonas vaginalis infection in subjects (Example 28(a)); type: in vivo, human
From the text: Both had prior courses of therapy for this disorder without adequate response. […]
One subject was later reinfected by their sexual partner but the reinfection was cleared employing a daily douche of 5% aqueous methylsulfonylmethane for one week.

Q: With `CS(C)(=O)=O` [methylsulfonylmethane] as the molecule, how does the “deaths by month 5” value [1] read?
A: No T group mice had died

Q: What about the sense of taste ([2]; critical observers) of the same molecule?
A: improved

Q: And the sense of smell ([2]; gargle, two subjects with restricted sense of smell)?
A: sharpening of this sense

Q: What about the “bad breath associated with smoking or food” value ([2]; in water, saline solution or oral hygiene product) of the same molecule?
A: reduced or eliminated

Q: What about the “viscosity of the mucous” value ([2]; subjects with viscid mucoid nasopharyngeal discharge) of the same molecule?
A: reduction in the viscosity of the mucous

Q: What about the “relief of pain and inflammation, musculoskeletal system disorders” value ([3]; about 100 up to about 5,000 mg per day) of the same molecule?
A: substantial and long lasting relief

Q: What about the “relief in migraine sufferers” value ([3]; oral 50-500 mg per day) of the same molecule?
A: substantial relief

Q: What about the “pain after about 16 months” value ([3]; subject two, 1/4-1/2 tsp. daily) of the same molecule?
A: substantially pain-free

Q: What about the “pain relief by the end of the second week” value ([3]; subject two, chronic arthritis, 1/2 tsp. daily) of the same molecule?
A: almost total pain relief

Q: And the “day on which the 36-hour combination healing result was matched” value [4]?
A: three

Q: And the “suffering from sun and wind exposure” value (sun and wind burn)?
A: suffered only mildly

Q: What about the development of lymphomas (lymphomas; compared with control) of the same molecule?
A: significant delay

Q: And the tumor incidence (lymphomas; compared with control)?
A: decreased

Q: What about the joint involvement (lymphomas; only grossly examined) of the same molecule?
A: marked reduction

Q: And the “titer of primary IgM and secondary IgG” value (lymphomas)?
A: increased titer

Q: And the “benefit, Dog A” value (arthritis; Dog A, 0.5 g/day b.i.d., 7 days)?
A: without apparent benefit

Q: And the “time to free mobility without evident discomfort nor ataxia, Dog A” value (arthritis; Dog A, 1.5 g/day b.i.d.)?
A: ≤ 10 days

Q: And the “benefit, Dog B” value (arthritis; Dog B, 1.5 grams b.i.d. X 1 month)?
A: no apparent benefit

Q: What about the “mobility over the first month, Dog C” value (arthritis; Dog C, 0.5 grams b.i.d.) of the same molecule?
A: gradual improvement

Q: And the “musculoskeletal restriction and discomfort in third month, Dog C” value (arthritis; Dog C, 0.5 grams b.i.d.)?
A: neither musculoskelatal restriction nor discomfort

Q: And the “pain after one week, Dog D” value (arthritis; Dog D, 1 gm/day b.i.d.)?
A: pain-free

Q: What about the “state at over six months, Dog D” value (arthritis; Dog D, 1 gm/day b.i.d.) of the same molecule?
A: apparently healthy and frisky, requiring no medication

Q: And the “time to significant improvement in mental attitude” value (mood and depression; 1000 mg/kg body weight daily, chronically or terminally ill patient)?
A: Within 12 hours to 2 days

Q: And the alertness (mood and depression; reported by individuals)?
A: increased alertness

Q: And the depression frequency (mood and depression; reported by individuals)?
A: very infrequent depression

Q: What about the mood changes (mood and depression; reported by individuals) of the same molecule?
A: a plateau of mood changes

Q: What about the ability to concentrate (mood and depression; students) of the same molecule?
A: enhanced

Q: What about the “time to relief of depression” value (mood and depression; subjects intermittently on antidepression medication, days with prior medication) of the same molecule?
A: within hours rather than days

Q: And the “urinary taurine secretion produced by aromatic hydrocarbons” value [5]?
A: enhances

Q: And the motor activity ([6]; i.p.)?
A: reduces

Q: And the body temperature ([6]; rats exposed to 5° C.)?
A: lowers

Q: What about the “primary IgM and secondary IgG responses to sheep erythrocytes (SRBC)” value [7] of the same molecule?
A: significantly enhancement

Q: What about the tnp-ficoll response [7] of the same molecule?
A: significant suppression

Q: And the “pliability and softness of the skin” value (skin)?
A: improving

Q: And the “organism in two stool specimens” value (Giardia lamblia; collected one week apart)?
A: free of the organism

Q: And the “symptoms by the eighth day” value (Giardia lamblia; one subject)?
A: asymptomatic

Q: What about the “outcome in subject's partner” value (Trichomonas vaginalis; 500 mg twice daily, two weeks) of the same molecule?
A: successfully treated

Q: What about the reinfection (Trichomonas vaginalis; daily douche of 5% aqueous, one week) of the same molecule?
A: cleared
